Laboratory results as given in patent EP0191624A2, “Gold-purine antitumor agents” (ENGELHARD CORPORATION, priority 1985, dated 1986).
Values joined by “and” are separate entries in the source; they are usually repeats but may differ in a detail not shown here. Equal entries are not always repeated.

Experiments:
Solubility in water = type: physicochemical
S180 ascites = assay: Screening for anti-tumor activity against S180 ascites (increase in life span); type: in vivo, female CFW Swiss mice; settings: for %ILS: injected day 1; for 30-Day Survivors: survivors/mice in set
Description: The compounds were evaluated for anti-tumor activity against S180 ascites in female CFW Swiss mice by the following procedure: • CFW mice, averaging 20g, are immediately inspected and placed in newly prepared cages. On day zero the mice are inoculated with 0.2 ml. of a freshly prepared saline suspension (0.15 M NaCl) containing 1 x 10^7 tumor cells/ ml, or a total of 2 x 10^6 cells. This inoculum is freshly prepared using "transfer" mice which have been injected with tumor cells the previous week. This inoculum is the end-product of a series of steps which involves (1) the removal of the cells from the peritoneal cavity of the sacrificed transfer mouse, (2) alternate centrifugation- washing (2-3 times with cold saline) to remove occasional blood and other undesirable components, and finally (3) dilution (1:3) of the packed cell volume with saline (the final centrifugation being carried out at 1,000 rpm for 2 min.). A cell count is made on a 2,000-fold dilution of this 1:3 suspension by means of a Coulter Counter. A final dilution to 1 x 10^7 cells/ml. is made based on the averaged count. On day 1, solutions of the test compounds are prepared and the mice injected, with each mouse of a set of six being injected with the same test compound at the same dose level.
Also, on this day, two types of controls (6 mice/se are employed: (1) Normal (1 set): 0.5 ml. of the solvent medium used for the test compound, and (2) Positive control (1 set): a known anti-tumor agent (cis-(Pt(NH3)2Cl2] in saline at 8 mg./kg.), used to test the response of the biological system.
ILS values above 50% represent significant activity; those above 75% represent excellent activity.

[1] = Stability in aqueous solution with respect to reduction; type: physicochemical
[2] = C. Dragulescu et al, Int. Coord. Chem. Conf. XVI 1,99 (1974); cited from earlier work
[3] = positive control in saline at 8 mg./kg., run alongside each test compound

| Compound | soluble in water (Solubility in water) | %ILS (S180 ascites; dose 10 mg/kg) | 30-Day Survivors (S180 ascites; dose 10 mg/kg) | %ILS (S180 ascites; dose 20 mg/kg) | 30-Day Survivors (S180 ascites; dose 20 mg/kg) | %ILS (S180 ascites; dose 40 mg/kg) | 30-Day Survivors (S180 ascites; dose 40 mg/kg) | %ILS (S180 ascites; dose 80 mg/kg) | 30-Day Survivors (S180 ascites; dose 80 mg/kg) | %ILS (S180 ascites; dose 160 mg/kg) | 30-Day Survivors (S180 ascites; dose 160 mg/kg) | %ILS (S180 ascites; dose 320 mg/kg) | 30-Day Survivors (S180 ascites; dose 320 mg/kg) | stable, at least with respect to reduction, in solution [1] | Control 30-Day Survivors (S180 ascites; [3]) | Control %ILS (S180 ascites; [3]) | %ILS (S180 ascites; dose 5 mg/kg) | 30-Day Survivors (S180 ascites; dose 5 mg/kg) | antitumor activity in mice [2] |
| --- | --- | --- | --- | --- | --- | --- | --- | --- | --- | --- | --- | --- | --- | --- | --- | --- | --- | --- | --- |
| Cl.Cn1c(=O)c2c(ncn2CC(O)CO)n(C)c1=O.Cn1c(=O)c2c(ncn2CC(O)CO)n(C)c1=O.[Cl][Au]([Cl])[Cl] (stereo not shown) [Example 2, [AuCl3(7-(2,3-dihydroxy-propyl)theophylline)] (7-(2,3-dihydroxypropyl)theophylline)·HCl] | at least 64 mg/5 ml | -13% | 0/6 | -11% | 0/6 | -3% | 0/6 | 69% | 2/6 | 34% | 1/6 | -62% | 0/6 | ca. 24 hours |  |  |  |  |  |
| N.N.[Cl][Pt][Cl] [Control, cis-diamminedichloroplatinum(II), reference compound] |  |  |  |  |  |  |  |  |  |  |  |  |  |  | 3/6 and 4/5 | 80% and 96% |  |  |  |
| Cl.Cn1c(=O)c2c(ncn2CCCl)n(C)c1=O.Cn1c(=O)c2c(ncn2CCCl)n(C)c1=O.[Cl][Au]([Cl])[Cl] [Example 1, [AuCl3(7-chloroethyl-theophylline)](7-chloro-ethyltheophylline)·HCl] | at least 64 mg/5 ml | -3% | 0/6 | 14% | 0/6 | 9% | 0/6 | 79% | 3/6 | 3% | 1/6 |  |  | ca. 24 hours |  |  | 8% | 0/6 |  |
| [Au(III)(5-diazauracil)2Cl2]Cl |  |  |  |  |  |  |  |  |  |  |  |  |  |  |  |  |  |  | possess antitumor activity |
